# Patent US9249163B2, “PDE10a inhibitors for the treatment of type II diabetes” (Janssen Pharmaceutica, NV, priority 2013, dated 2016)
# Counter-ions that a name gives are not always drawn.
# Assays:
# [1] = target: Rat recombinant PDE10a (rPDE10a) (Rattus norvegicus (Rat), UniProt Q9QYJ6); experiment: In vitro assay PDE10a (rat recombinant PDE10a, SPA); assay type: biochemical; conditions: 60 nM cAMP, 60 min at rt, read-out: rPDE10a2 IC50
# Method: Rat recombinant PDE10a (rPDE10a) was expressed in Sf9 cells using a recombinant rPDE10a baculovirus construct. Cells were harvested after 48 h of infection and the rPDE10a protein was purified by metal chelate chromatography on Ni-sepharose 6FF. Tested compounds were dissolved and diluted in 100% DMSO to a concentration 100 fold of the final concentration in the assay. Compound dilutions (0.4 μL) were added in 384 well plates to 20 μL of incubation buffer (50 mM Tris pH 7.8, 8.3 mM MgCl2, 1.7 mM EGTA). 10 μL of rPDE10a enzyme in incubation buffer was added and the reaction was started by addition of 10 μL substrate to a final concentration of 60 nM cAMP and 0.008 μCi ^3H-cAMP. The reaction was incubated for 60 min at rt. After incubation, the reaction was stopped with 20 μL of 17.8 mg/mL PDE SPA beads. After sedimentation of the beads during 30 min the radioactivity was measured in a Perkin Elmer Topcount scintillation counter and results were expressed as cpm. For blank values the enzyme was omitted from the reaction and replaced by incubation buffer. Control values were obtained by addition of a final concentration of 1% DMSO instead of compound.
# [2] = target: Human recombinant PDE10A2 (Homo sapiens (Human), UniProt Q9Y233); experiment: In vitro hPDE10a (human recombinant PDE10A2, scintillation proximity assay); assay type: biochemical; conditions: human recombinant PDE10A2, 60 nM cAMP, 60 min at room temperature; read-out: hPDE10a2 IC50
# Method: Human recombinant PDE10A2 was expressed in Sf9 cells, using a recombinant baculovirus construct containing the full length sequence containing a 6×His sequence following the start Met to allow metal affinity purification of the recombinant protein. Cells were harvested and the phosphodiesterase protein was purified by metal chelate chromatography on Ni-sepharose 6FF.
# The affinity of the compounds of Formula (I) for phophodiesterases (PDE) was measured by a scintillation proximity assay (SPA). PDE Yttrium Silicate SPA beads allow PDE activity to be measured by direct binding of the primary phosphate groups of non-cyclic AMP or GMP to the beads via a complex iron chelation mechanism. The amount of bound tritiated product ([^3H]-AMP) is measured by liquid scintillation counting.
# The compounds were dissolved and diluted in 100% DMSO in polystyrene plates to a concentration of 100-fold the final concentration in the assay. Human PDE10A enzyme solution (10 μL) was added to 20 μL, of incubation buffer (50 mM Tris pH 7.8, 8.3 mM MgCl2, 1.7 mM EGTA), 10 μL, substrate solution consisting of a mixture of non-tritiated and tritiated substrate (60 nM cAMP, 0.008 μCi ^3H-cAMP), and 0.4 μL, compound in 100% DMSO in a 384-well plate, and incubated for 60 min at room temperature. After incubation, the reaction was stopped with 20 μL, of stop solution, consisting of PDE SPA beads (17.8 mg beads/mL in 18 mM zinc sulphate). After sedimentation of the beads for 30 min, the radioactivity was measured in a Perkin Elmer Topcount scintillation counter and results were expressed as cpm. To measure the low control, no enzyme was added to the reaction mixture.
# Data were calculated as the percentage of inhibition of total activity measured in the absence of test compound (% control).
# Chain of Human recombinant PDE10A2 (Q9Y233 267-1055): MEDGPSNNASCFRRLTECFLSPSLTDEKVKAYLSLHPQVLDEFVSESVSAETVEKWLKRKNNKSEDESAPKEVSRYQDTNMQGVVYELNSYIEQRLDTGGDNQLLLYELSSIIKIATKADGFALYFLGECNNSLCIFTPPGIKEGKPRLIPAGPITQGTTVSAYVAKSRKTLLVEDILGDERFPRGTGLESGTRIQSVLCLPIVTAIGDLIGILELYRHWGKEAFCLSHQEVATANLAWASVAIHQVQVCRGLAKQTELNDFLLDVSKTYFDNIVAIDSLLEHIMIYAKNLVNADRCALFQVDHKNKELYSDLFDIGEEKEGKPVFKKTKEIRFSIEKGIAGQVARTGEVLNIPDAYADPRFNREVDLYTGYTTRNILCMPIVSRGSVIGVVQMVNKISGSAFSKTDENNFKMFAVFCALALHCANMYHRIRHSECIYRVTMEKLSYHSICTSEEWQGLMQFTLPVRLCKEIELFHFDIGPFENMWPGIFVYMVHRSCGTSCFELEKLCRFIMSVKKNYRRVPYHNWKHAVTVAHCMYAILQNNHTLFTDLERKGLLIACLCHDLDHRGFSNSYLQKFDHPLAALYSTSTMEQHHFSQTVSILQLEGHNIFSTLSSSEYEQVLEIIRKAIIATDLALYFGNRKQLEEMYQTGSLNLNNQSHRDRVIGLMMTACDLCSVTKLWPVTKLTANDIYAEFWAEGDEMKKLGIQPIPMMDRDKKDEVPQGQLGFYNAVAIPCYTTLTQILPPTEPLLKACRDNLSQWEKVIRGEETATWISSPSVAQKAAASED
# Chain of Rat recombinant PDE10a (rPDE10a) (Q9QYJ6 whole entry): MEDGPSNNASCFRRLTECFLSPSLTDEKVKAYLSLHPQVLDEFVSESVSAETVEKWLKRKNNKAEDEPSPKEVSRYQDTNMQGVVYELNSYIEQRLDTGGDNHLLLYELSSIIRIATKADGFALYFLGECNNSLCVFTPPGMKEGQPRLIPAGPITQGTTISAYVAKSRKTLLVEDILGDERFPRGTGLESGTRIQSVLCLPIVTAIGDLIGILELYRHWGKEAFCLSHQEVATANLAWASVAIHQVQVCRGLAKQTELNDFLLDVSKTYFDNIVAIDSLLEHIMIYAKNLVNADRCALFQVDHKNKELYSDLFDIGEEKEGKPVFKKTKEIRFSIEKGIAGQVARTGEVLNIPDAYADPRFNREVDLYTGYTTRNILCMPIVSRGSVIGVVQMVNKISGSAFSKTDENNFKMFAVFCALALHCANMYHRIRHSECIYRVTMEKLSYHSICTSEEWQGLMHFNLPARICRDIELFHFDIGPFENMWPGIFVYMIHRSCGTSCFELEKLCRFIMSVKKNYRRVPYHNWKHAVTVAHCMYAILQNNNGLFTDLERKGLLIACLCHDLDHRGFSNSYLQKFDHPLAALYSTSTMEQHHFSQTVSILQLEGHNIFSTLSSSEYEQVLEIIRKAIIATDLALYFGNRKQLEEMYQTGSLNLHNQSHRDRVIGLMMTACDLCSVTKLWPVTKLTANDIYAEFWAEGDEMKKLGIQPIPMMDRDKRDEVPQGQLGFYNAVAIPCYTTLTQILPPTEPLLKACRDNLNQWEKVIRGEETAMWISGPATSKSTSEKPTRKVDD
Compound,IC50 [1] [nM],IC50 [2] [nM]
"O=c1[nH]c2ccc(-c3cnc(N4CCOCC4)c4nc(CCc5ccc6ccccc6n5)cn34)cc2o1 [Cpd 64, 6-(8-morpholino-2-(2-(quinolin-2-yl)ethyl)imidazo[1,2-a]pyrazin-5-yl)benzo[d]oxazol-2(3H)-one trifluoroacetic acid salt]",22,13
"O=c1[nH]ncn1-c1ccc(-c2cnc(N3CCOCC3)c3nc(CCc4ccc5ccccc5n4)cn23)cc1 [Cpd 65, 4-(4-(8-Morpholino-2-(2-(quinolin-2-yl)ethyl)imidazo[1,2-a]pyrazin-5-yl)phenyl)-1H-1,2,4-triazol-5(4H)-one]",60,38
"O=C(O)CNc1ccc(-c2cnc(N3CCOCC3)c3nc(/C=C/c4ccc5ccccc5n4)cn23)cn1 [Cpd 66, (E)-2-(5-(8-Morpholino-2-(2-(quinolin-2-yl)vinyl)imidazo[1,2-a]pyrazin-5-yl)pyridin-2-ylamino)acetic acid trifluoroacetic acid salt]",3,2
"c1ccc2nc(CCc3cn4c(-c5ccc(-c6nnc[nH]6)nc5)cnc(N5CCOCC5)c4n3)ccc2c1 [Cpd 67, 4-(5-(6-(4H-1,2,4-Triazol-3-yl)pyridin-3-yl)-2-(2-(quinolin-2-yl)ethyl)imidazo[1,2-a]pyrazin-8-yl)morpholine]",4,5
"c1ccc2nc(SCc3cn4c(-c5ccc(-c6nnn[nH]6)nc5)cnc(N5CCOCC5)c4n3)ccc2c1 [Cpd 70, 4-(5-(6-(1H-Tetrazol-5-yl)pyridin-3-yl)-2-((quinolin-2-ylthio)methyl)imidazo[1,2-a]pyrazin-8-yl)morpholine]",1,2
"O=C(Nc1ccc(-c2cnc(N3CCOCC3)c3nc(/C=C/c4ccc5ccccc5n4)cn23)cc1)N(CCO)CCO [Cpd 71, (E)-1,1-bis(2-hydroxyethyl)-3-(4-(8-morpholino-2-(2-(quinolin-2-yl)vinyl)imidazo[1,2-a]pyrazin-5-yl)phenyl)urea]",63,44
"O=C(NCCO)Nc1ccc(-c2cnc(N3CCOCC3)c3nc(/C=C/c4ccc5ccccc5n4)cn23)cc1 [Cpd 72, (E)-1-(2-Hydroxyethyl)-3-(4-(8-morpholino-2-(2-(quinolin-2-yl)vinyl)imidazo[1,2-a]pyrazin-5-yl)phenyl)urea]",46,31
"O=S(=O)(NCCO)c1ccc(-c2cnc(N3CCOCC3)c3nc(/C=C/c4ccc5ccccc5n4)cn23)cc1 [Cpd 73, (E)-N-(2-Hydroxyethyl)-4-(8-morpholino-2-(2-(quinolin-2-yl)vinyl)imidazo[1,2-a]pyrazin-5-yl)benzenesulfonamide]",40,26
"Oc1nc(-c2cnc(N3CCOCC3)c3nc(COc4ccc5ccccc5n4)cn23)no1 [Cpd 75, 3-(8-Morpholino-2-((quinolin-2-yloxy)methyl)imidazo[1,2-a]pyrazin-5-yl)-1,2,4-oxadiazol-5-ol]",< 1,< 1
"c1ccc2nc(CCc3cn4c(-c5ccc(-c6nnn[nH]6)nc5)cnc(N5CCOCC5)c4n3)ccc2c1 [Cpd 77, 4-(5-(6-(1H-Tetrazol-5-yl)pyridin-3-yl)-2-(2-(quinolin-2-yl)ethyl)imidazo[1,2-a]pyrazin-8-yl)morpholine]",< 30,1
"CS(=O)(=O)Nc1ccc(-c2cnc(N3CCOCC3)c3nc(CCc4ccc5ccccc5n4)cn23)cn1 [Cpd 78, N-(5-(8-Morpholino-2-(2-(quinolin-2-yl)ethyl)imidazo[1,2-a]pyrazin-5-yl)pyridin-2-yl)methanesulfonamide]",< 1,1
"Oc1nc2ncc(-c3cnc(N4CCOCC4)c4nc(CCc5ccc6ccccc6n5)cn34)cc2[nH]1 [Cpd 79, 6-(8-Morpholino-2-(2-(quinolin-2-yl)ethyl)imidazo[1,2-a]pyrazin-5-yl)-1H-imidazo[4,5-b]pyridin-2-ol]",33,7
"C(=C\c1cn2c(-c3ccc(N4CCNCC4)nc3)cnc(C3CCOCC3)c2n1)/c1ccc2ccccc2n1 [Cpd 80, (E)-2-(2-(5-(6-(piperazin-1-yl)pyridin-3-yl)-8-(tetrahydro-2H-pyran-4-yl)imidazo[1,2-a]pyrazin-2-yl)vinyl)quinoline trifluoroacetic acid salt]",562,617
COc1cc(-c2ncc(-c3ccc(N4CCNCC4)nc3)n3cc(/C=C/c4ccc5ccccc5n4)nc23)ccn1 [Cpd 81],91,245
COc1cc(-c2ncc(-c3ccc(N4CCNCC4)nc3)n3cc(COc4ccc5ccccc5n4)nc23)ccn1 [Cpd 82],245,282
"NC(=O)c1ccc(-c2cnc(N3CCOCC3)c3nc(COc4ccc5ccccc5n4)cn23)cn1 [Cpd 84, 5-(8-Morpholino-2-((quinolin-2-yloxy)methyl)imidazo[1,2-a]pyrazin-5-yl)picolinamide]",8,16
"CS(=O)(=O)Nc1ccc(-c2cnc(N3CCOCC3)c3nc(COc4ccc5ccccc5n4)cn23)cn1 [Cpd 85, N-(5-(8-Morpholino-2-((quinolin-2-yloxy)methyl)imidazo[1,2-a]pyrazin-5-yl)pyridin-2-yl)methanesulfonamide]",2,1
"NS(=O)(=O)c1ccc(-c2cnc(N3CCOCC3)c3nc(COc4ccc5ccccc5n4)cn23)cn1 [Cpd 86, 5-(8-Morpholino-2-((quinolin-2-yloxy)methyl)imidazo[1,2-a]pyrazin-5-yl)pyridine-2-sulfonamide trifluoroacetic acid salt]",16,14
"NS(=O)(=O)c1ccc(-c2cnc(N3CCOCC3)c3nc(COc4ccc5ccccc5n4)cn23)cc1 [Cpd 87, 4-(8-Morpholino-2-((quinolin-2-yloxy)methyl)imidazo[1,2-a]pyrazin-5-yl)benzenesulfonamide]",2,1
"CC(=O)NS(=O)(=O)c1ccc(-c2cnc(N3CCOCC3)c3nc(COc4ccc5ccccc5n4)cn23)cc1 [Cpd 88, N-((4-(8-Morpholino-2-((quinolin-2-yloxy)methyl)imidazo[1,2-a]pyrazin-5-yl)phenyl)sulfonyl)acetamide]",12,9
"c1ccc2nc(OCc3cn4c(-c5ccc(-c6nnn[nH]6)cc5)cnc(N5CCOCC5)c4n3)ccc2c1 [Cpd 90, 4-(5-(4-(1H-Tetrazol-5-yl)phenyl)-2-((quinolin-2-yloxy)methyl)imidazo[1,2-a]pyrazin-8-yl)morpholine]",1,2
"Oc1nc2ncc(-c3cnc(N4CCOCC4)c4nc(/C=C/c5ccc6ccccc6n5)cn34)cc2[nH]1 [Cpd 94, (E)-6-(8-Morpholino-2-(2-(quinolin-2-yl)vinyl)imidazo[1,2-a]pyrazin-5-yl)-3H-imidazo[4,5-b]pyridin-2-ol]",3,8
"C(=C\c1cn2c(-c3ccc(-c4nnn[nH]4)nc3)cnc(N3CCOCC3)c2n1)/c1ccc2ccccc2n1 [Cpd 96, (E)-4-(5-(6-(1H-Tetrazol-5-yl)pyridin-3-yl)-2-(2-(quinolin-2-yl)vinyl)imidazo[1,2-a]pyrazin-8-yl)morpholine]",< 1,3
"c1ccc2nc(SCc3cn4c(-c5ccc(N6CCNCC6)nc5)cnc(N5CCOCC5)c4n3)ccc2c1 [Cpd 98, 4-(5-(6-(piperazin-1-yl)pyridin-3-yl)-2-((quinolin-2-ylthio)methyl)imidazo[1,2-a]pyrazin-8-yl)morpholine trifluoroacetic acid salt]",52,58
"c1ccc2nc(N3CC(c4cn5c(-c6ccc(N7CCNCC7)nc6)cnc(N6CCOCC6)c5n4)C3)ccc2c1 [Cpd 99, 4-(5-(6-(piperazin-1-yl)pyridin-3-yl)-2-(1-(quinolin-2-yl)azetidin-3-yl)imidazo[1,2-a]pyrazin-8-yl)morpholine]",204,224
